In PubChem BioAssay AID1919013 (Molecular Pharmacology Branch, DTP, NCI, 2023):

Tested on: LG0703-F498-PDC complex spheroid growth
Experiment: Anticancer human tumor LG0703-F498-PDC patient-derived lung adenocarcinoma cell line growth inhibition [AhR]
Conditions: for IC50: curve of first compound; for viability, T/C: stronger effect = lower value
Excerpt: Multicellular complex tumor spheroid response to aryl hydrocarbon receptor antagonists in combination with a variety of drugs and investigational agents in selected tumor cell lines
The current study was undertaken to assess response to aryl hydrocarbon receptor antagonists in combination with standard-of-care drugs and investigational agents in solid tumor complex spheroid models. Complex spheroids include a stromal component modeled by human endothelial cells (HUVEC) and fibroblasts modeled by human mesenchymal stem cells (MSCs). The concentration ranges selected for each drug and investigational agent were based upon clinically achievable concentrations if the clinical Cmax of the agent was known.
Compounds. The drugs and investigational agents: BAY 2416964 (NSC825713), GNF351 (NSC835774), CH-223191 (NSC835775), CPI-455 (NSC825282), aza-TdCyd (NSC777586), decitabine (NSC127716), belinostat (NSC758774), entinostat (NSC756642), pevonedistat (NSC761192), tazemetostat (NSC777109), talazoparib (NSC765396), olaparib (NSC753686), selinexor (NSC780203), nedisertib (M3814, NSC802822), bortezomib (NSC756655), venetoclax (NSC766270), doxorubicin (NSC123127), elimusertib (BAY189344, NSC800525), ceralasertib (AZD6738, NSC777638), TAK-243 (NSC785004), alisertib (NSC759677), etoposide (NSC141540), topotecan (NSC609699), eribulin (NSC707389), gemcitabine (NSC613327), carboplatin (NSC241240), cisplatin (NSC119875), and SN-38 (NSC673596) were obtained from the National Cancer Institute (NCI) Developmental Therapeutics Program Chemical Repository (32). The FDA-approved anticancer drug set is available from the Developmental Therapeutics Program at https://dtp.cancer.gov/organization/dscb/obtaining/available plates.htm. […] The stock solutions were prepared in dimethyl sulfoxide (DMSO, Sigma-Aldrich, St. Louis, MO, cat. D2650), except for the platinum compounds which were prepared in saline (Quality Biological, Gaithersburg, MD, cat. 114-055-101), at 800-fold the tested concentration and stored at -70 degrees C prior to their use. All drugs and investigational agents were tested over a range starting from a high concentration at or near the clinical Cmax and decreasing in half-log increments. If the clinical Cmax for an agent had not been determined, the highest concentration tested was 10 microM (Table 1).
Cell Culture. All cells were maintained in an incubator at 37 degrees C and 5% CO2 with 95% humidity. The PDC lines were cultured according to standard operating procedures established by the NCI PDMR (https://pdmr.cancer.gov). Briefly, all PDCs were thawed and cultured in Matrigel-coated flasks prepared with a working solution of 1X Ham's F-12 nutrient mix, without supplementation (Invitrogen, Waltham, MA, cat. 11765054), 100 U/mL penicillin-streptomycin (Invitrogen, cat. 15140122), and 2.5% Matrigel (Corning Inc., Corning, NY, cat. 354248) for the first three passages. All PDCs were cultured in complete DMEM/F-12 media containing advanced DMEM/F-12 (Invitrogen, cat. 12634028), 4.9% defined fetal bovine serum, heat inactivated (HyClone Laboratories Inc., Logan, UT, cat. SH30070.03HI), 389 ng/mL hydrocortisone (Sigma-Aldrich, cat. H4001), 9.7 ng/mL human EGF recombinant protein (Invitrogen, cat. PHG0313), 23.4 microg/mL adenine (Sigma-Aldrich, cat. A2786), 97.3 U/mL penicillin-streptomycin (Invitrogen, cat. 15140122), 1.9 mM L-glutamine (Invitrogen, cat. 25030081), and 9.7 microM Y-27632 dihydrochloride (Tocris Bioscience, Bristol, United Kingdom, cat. 1254). The PDCs were cultured in complete DMEM/F12 media without 10 microM Y-27632 dihydrochloride for at least two passages prior to the screen. The established cell lines NCI-H1341 and […] were cultured in DMEM/F-12, HEPES (Invitrogen, cat. 11330032), 5% defined fetal bovine serum (HyClone Laboratories Inc., cat. SH30070.03), ITS premix universal culture supplement [insulin (5 microg/mL), transferrin (5 microg/mL), and selenious acid (5 ng/mL)] […]
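Note: luminescence taken as a proxy for viable cell amount.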
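Throughout, for viability, T/C: percent of DMSO vehicle control where 100% means growth equal to vehicle.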

Question: Which IC50 (second compound 0.1 µM) does the source give for `CC(C)CC(NC(=O)C(Cc1ccccc1)NC(=O)c1cnccn1)B(O)O` (stereo not given) + CC(CO)NC(=O)c1cc(-c2ccc(Cl)cc2)nn(-c2cnn(C)c2)c1=O here?
Answer: Its IC50 is 2.38 nM.

Question: And the IC50 (second compound 0.316 µM)?
Answer: The IC50 was 2.52 nM.

Question: What about the IC50 (second compound 1 µM) of the same compound?
Answer: The IC50 was 2.12 nM.

Question: What about the IC50 (second compound 3.16 µM) of the same compound?
Answer: Its IC50 is 2.09 nM.

Question: What about the IC50 (second compound 10 µM) of the same compound?
Answer: Its IC50 is 1.88 nM.

Question: What about the viability, T/C (second compound 0.1 µM, first compound 0.000949 µM) of the same compound?
Answer: Its viability, T/C is 76.8%.

Question: And the viability, T/C (second compound 0.1 µM, first compound 0.003 µM)?
Answer: The viability, T/C was 43.2%.

Question: And the viability, T/C (second compound 0.1 µM, first compound 0.00949 µM)?
Answer: The viability, T/C was 1.95%.

Question: And the viability, T/C (second compound 0.1 µM, first compound 0.03 µM)?
Answer: Its viability, T/C is 0.49%.

Question: And the viability, T/C (second compound 0.1 µM, first compound 0.0949 µM)?
Answer: The viability, T/C was 0.12%.

Question: And the viability, T/C (second compound 0.1 µM, first compound 0.3 µM)?
Answer: Its viability, T/C is 0.2%.

Question: And the viability, T/C (second compound 0.316 µM, first compound 0.000949 µM)?
Answer: Its viability, T/C is 80%.

Question: And the viability, T/C (second compound 0.316 µM, first compound 0.003 µM)?
Answer: The viability, T/C was 44.7%.

Question: What about the viability, T/C (second compound 0.316 µM, first compound 0.00949 µM) of the same compound?
Answer: Its viability, T/C is 3.04%.

Question: And the viability, T/C (second compound 0.316 µM, first compound 0.03 µM)?
Answer: The viability, T/C was 0.34%.

Question: And the viability, T/C (second compound 0.316 µM, first compound 0.0949 µM)?
Answer: The viability, T/C was 0.17%.

Question: What about the viability, T/C (second compound 0.316 µM, first compound 0.3 µM) of the same compound?
Answer: The viability, T/C was 0.17%.

Question: And the viability, T/C (second compound 1 µM, first compound 0.000949 µM)?
Answer: The viability, T/C was 75.9%.

Question: And the viability, T/C (second compound 1 µM, first compound 0.003 µM)?
Answer: Its viability, T/C is 38.8%.

Question: What about the viability, T/C (second compound 1 µM, first compound 0.00949 µM) of the same compound?
Answer: Its viability, T/C is 2.08%.

Question: What about the viability, T/C (second compound 1 µM, first compound 0.03 µM) of the same compound?
Answer: Its viability, T/C is 0.36%.

Question: And the viability, T/C (second compound 1 µM, first compound 0.0949 µM)?
Answer: The viability, T/C was 1.04%.

Question: What about the viability, T/C (second compound 1 µM, first compound 0.3 µM) of the same compound?
Answer: The viability, T/C was 0.16%.

Question: And the viability, T/C (second compound 3.16 µM, first compound 0.000949 µM)?
Answer: The viability, T/C was 78%.

Question: And the viability, T/C (second compound 3.16 µM, first compound 0.003 µM)?
Answer: The viability, T/C was 37.3%.

Question: What about the viability, T/C (second compound 3.16 µM, first compound 0.00949 µM) of the same compound?
Answer: Its viability, T/C is 1.6%.

Question: And the viability, T/C (second compound 3.16 µM, first compound 0.03 µM)?
Answer: Its viability, T/C is 0.13%.

Question: What about the viability, T/C (second compound 3.16 µM, first compound 0.0949 µM) of the same compound?
Answer: Its viability, T/C is 0.63%.

Question: And the viability, T/C (second compound 3.16 µM, first compound 0.3 µM)?
Answer: The viability, T/C was 1.52%.

Question: What about the viability, T/C (second compound 10 µM, first compound 0.000949 µM) of the same compound?
Answer: Its viability, T/C is 71.2%.

Question: And the viability, T/C (second compound 10 µM, first compound 0.003 µM)?
Answer: Its viability, T/C is 35.5%.

Question: And the viability, T/C (second compound 10 µM, first compound 0.00949 µM)?
Answer: The viability, T/C was 1.37%.

Question: What about the viability, T/C (second compound 10 µM, first compound 0.03 µM) of the same compound?
Answer: Its viability, T/C is 0.23%.

Question: What about the viability, T/C (second compound 10 µM, first compound 0.0949 µM) of the same compound?
Answer: The viability, T/C was 0.25%.

Question: What about the viability, T/C (second compound 10 µM, first compound 0.3 µM) of the same compound?
Answer: The viability, T/C was 0.21%.

Question: With `Nc1ccccc1NC(=O)c1ccc(CNC(=O)OCc2cccnc2)cc1` + CC(CO)NC(=O)c1cc(-c2ccc(Cl)cc2)nn(-c2cnn(C)c2)c1=O as the compound, how does the IC50 (second compound 0.1 µM) read?
Answer: Its IC50 is 401 nM.

Question: What about the IC50 (second compound 0.316 µM) of the same compound?
Answer: The IC50 was 428 nM.

Question: What about the IC50 (second compound 1 µM) of the same compound?
Answer: The IC50 was 461 nM.

Question: And the IC50 (second compound 3.16 µM)?
Answer: Its IC50 is 413 nM.

Question: What about the IC50 (second compound 10 µM) of the same compound?
Answer: Its IC50 is 335 nM.

Question: What about the viability, T/C (second compound 0.1 µM, first compound 0.0316 µM) of the same compound?
Answer: The viability, T/C was 82.4%.

Question: And the viability, T/C (second compound 0.1 µM, first compound 0.1 µM)?
Answer: The viability, T/C was 86.8%.

Question: And the viability, T/C (second compound 0.1 µM, first compound 0.316 µM)?
Answer: Its viability, T/C is 56.2%.

Question: What about the viability, T/C (second compound 0.1 µM, first compound 1 µM) of the same compound?
Answer: The viability, T/C was 19.3%.

Question: And the viability, T/C (second compound 0.1 µM, first compound 3.16 µM)?
Answer: Its viability, T/C is 2.71%.

Question: What about the viability, T/C (second compound 0.1 µM, first compound 10 µM) of the same compound?
Answer: Its viability, T/C is 0.45%.

Question: And the viability, T/C (second compound 0.316 µM, first compound 0.0316 µM)?
Answer: Its viability, T/C is 72.8%.

Question: And the viability, T/C (second compound 0.316 µM, first compound 0.1 µM)?
Answer: The viability, T/C was 71.6%.

Question: And the viability, T/C (second compound 0.316 µM, first compound 0.316 µM)?
Answer: Its viability, T/C is 59.7%.

Question: And the viability, T/C (second compound 0.316 µM, first compound 1 µM)?
Answer: Its viability, T/C is 22.6%.

Question: What about the viability, T/C (second compound 0.316 µM, first compound 3.16 µM) of the same compound?
Answer: Its viability, T/C is 2.65%.

Question: And the viability, T/C (second compound 0.316 µM, first compound 10 µM)?
Answer: The viability, T/C was 0.63%.

Question: What about the viability, T/C (second compound 1 µM, first compound 0.0316 µM) of the same compound?
Answer: Its viability, T/C is 77.8%.

Question: What about the viability, T/C (second compound 1 µM, first compound 0.1 µM) of the same compound?
Answer: Its viability, T/C is 79.9%.

Question: What about the viability, T/C (second compound 1 µM, first compound 0.316 µM) of the same compound?
Answer: The viability, T/C was 64.5%.

Question: And the viability, T/C (second compound 1 µM, first compound 1 µM)?
Answer: The viability, T/C was 19.6%.

Question: And the viability, T/C (second compound 1 µM, first compound 3.16 µM)?
Answer: The viability, T/C was 3.74%.

Question: What about the viability, T/C (second compound 1 µM, first compound 10 µM) of the same compound?
Answer: Its viability, T/C is 0.67%.

Question: And the viability, T/C (second compound 3.16 µM, first compound 0.0316 µM)?
Answer: The viability, T/C was 74.3%.

Question: And the viability, T/C (second compound 3.16 µM, first compound 0.1 µM)?
Answer: The viability, T/C was 71.6%.

Question: What about the viability, T/C (second compound 3.16 µM, first compound 0.316 µM) of the same compound?
Answer: The viability, T/C was 59.3%.

Question: And the viability, T/C (second compound 3.16 µM, first compound 1 µM)?
Answer: Its viability, T/C is 19.7%.

Question: And the viability, T/C (second compound 3.16 µM, first compound 3.16 µM)?
Answer: The viability, T/C was 2.42%.

Question: What about the viability, T/C (second compound 3.16 µM, first compound 10 µM) of the same compound?
Answer: The viability, T/C was 0.89%.

Question: What about the viability, T/C (second compound 10 µM, first compound 0.0316 µM) of the same compound?
Answer: The viability, T/C was 70.4%.

Question: What about the viability, T/C (second compound 10 µM, first compound 0.1 µM) of the same compound?
Answer: Its viability, T/C is 77%.

Question: And the viability, T/C (second compound 10 µM, first compound 0.316 µM)?
Answer: The viability, T/C was 48.1%.

Question: And the viability, T/C (second compound 10 µM, first compound 1 µM)?
Answer: Its viability, T/C is 21.8%.

Question: What about the viability, T/C (second compound 10 µM, first compound 3.16 µM) of the same compound?
Answer: The viability, T/C was 3.12%.

Question: And the viability, T/C (second compound 10 µM, first compound 10 µM)?
Answer: Its viability, T/C is 1.17%.
